In patent publication US20070059632A1, “Method of manufacturing a semiconductor device” (priority 2003, published 2007):

Columns and labels:
Type in all cases: physicochemical
Alkali developability = assay: Alkali developability; parameters: key: A: the resist film dissolved completely and disappeared; C: the resist film remained not dissolved even in a slight amount; conditions: tested on the corresponding polyphenol compound A before introducing the acid-dissociating group; film immersed in 2.38% aqueous TMAH for 10 s
Experimental: (5) Alkali Developability
A polyphenol compound A corresponding to each compound before introducing the acid-dissociating functional group was examined for its developability with an alkali developing solution.
A 10% by weight solution of each polyphenol compound A in PGMEA was spin-coated using a spin coater, to form a resist film of about 0.2 μm thick. After heating on a hot plate for 3 min at 110° C., the resist film was immersed in a 2.38% aqueous solution of TMAH for 10 s. The results were rated as “A” when the resist film dissolved completely and disappeared, and “C” when the resist film remained not dissolved even in a slight amount.

[1] = Solubility of compound in safety solvent; conditions: safety solvent (PGMEA or EL) at 23° C.
Experimental: (1) Solubility of Compound in Safety Solvent
Each compound was tested for its solubility in safety solvent (PGMEA or EL) at 23° C. The solubility was rated as “A” when dissolved in an amount of 5% by weight or more, “B” when dissolved in an amount of 0.1% by weight or more but less than 5% by weight, and “C” when not dissolved in an amount of 0.1% by weight or more.

[2] = Inhibition of dissolution in alkali developing solution; parameters: key: A: no change was visually noticed in the state of film; C: the surface was roughened or a part of the film was lost because of dissolution; conditions: resist film immersed in 2.38% aqueous solution of TMAH for 3 min
Experimental: (3) Inhibition of Dissolution in Alkali Developing Solution
The resist film formed in the evaluation 2 was immersed in a developing solution (2.38% aqueous solution of TMAH) for 3 min. The results were rated as “A” when no change was visually noticed in the state of film, and “C” when the surface was roughened or a part of the film was lost because of dissolution.

Structure (SMILES) | (5) Alkali developability (Alkali developability) | (3) Inhibition of dissolution in developing solution [2] | (1) Solubility in safety solvent [1]
Cc1cc(C(C)(c2ccc(OC(=O)OC(C)(C)C)c(C)c2)c2ccc3ccccc3c2)ccc1OC(=O)OC(C)(C)C [Compound 5-1] | A | A | A (dissolved in an amount of 5% by weight or more)
Cc1cc(C(C)(c2ccc(OC(=O)OC(C)(C)C)c(C)c2)c2ccc3ccccc3c2)ccc1O (stereo not drawn) [Compound 5-2] | A | A | A (dissolved in an amount of 5% by weight or more)
CC(C)(C)OC(=O)Cc1cc(C(C)(c2ccc(OC(=O)OC(C)(C)C)c(OC(=O)OC(C)(C)C)c2)c2ccc3ccccc3c2)ccc1OC(=O)OC(C)(C)C (stereo not drawn) [Compound 5-3] | A | A | A (dissolved in an amount of 5% by weight or more)
CCOC(C)Oc1ccc(C(C)(c2ccc(O)c(C)c2)c2ccc3ccccc3c2)cc1C (stereo not drawn) [Compound 5-4] | A | A | A (dissolved in an amount of 5% by weight or more)
Cc1cc(C(C)(c2ccc(OC(C)OC3CCCCC3)c(C)c2)c2ccc3ccccc3c2)ccc1O (stereo not drawn) [Compound 5-5] | A | A | A (dissolved in an amount of 5% by weight or more)
Cc1cc(C(C)(c2ccc(OC3CCCCO3)c(C)c2)c2ccc3ccccc3c2)ccc1O (stereo not drawn) [Compound 5-6] | A | A | A (dissolved in an amount of 5% by weight or more)
CCOC(C)Oc1ccc(C(C)(c2ccc(O)c(C3CCCCC3)c2)c2ccc3ccccc3c2)cc1C1CCCCC1 (stereo not drawn) [Compound 5-7] | A | A | A (dissolved in an amount of 5% by weight or more)
CC(C)(C)OC(=O)Oc1ccc(C(C)(c2ccc(O)cc2)c2ccc3ccccc3c2)cc1 (stereo not drawn) [Compound 5-8] | A | A | A (dissolved in an amount of 5% by weight or more)
CC(C)(C)OC(=O)Oc1ccc(C(c2ccc(O)cc2)c2cccc3ccccc23)cc1 (stereo not drawn) [Compound 5-9] | A | A | A (dissolved in an amount of 5% by weight or more)
Oc1ccc(C(c2ccc(OC3CCCCO3)cc2)c2ccc(-c3ccccc3)cc2)cc1 (stereo not drawn) [Compound 6-1] | A | A | A (dissolved in an amount of 5% by weight or more)
CC(C)(C)OC(=O)Oc1ccc(C2(c3ccc(OC(=O)OC(C)(C)C)c(OC(=O)OC(C)(C)C)c3)c3ccccc3-c3ccccc32)cc1OC(=O)OC(C)(C)C [Compound 7-1] |  | A | B (dissolved in an amount of 0.1% by weight or more but less than 5% by weight)
CC(C)(C)OC(=O)Oc1cc(C2(c3ccc(OC(=O)OC(C)(C)C)c(OC(=O)OC(C)(C)C)c3)c3ccccc3-c3ccccc32)ccc1O [Compound 7-2] | A | A | A (dissolved in an amount of 5% by weight or more)
CC(C)(C)OC(=O)Cc1cc(C2(c3cc(OC(=O)OC(C)(C)C)c(OC(=O)OC(C)(C)C)c(OC(=O)OC(C)(C)C)c3)c3ccccc3-c3ccccc32)cc(OC(=O)OC(C)(C)C)c1OC(=O)OC(C)(C)C [Compound 7-3] | A | A | A (dissolved in an amount of 5% by weight or more)
Oc1ccc(C2(c3ccc(OC4CCCCO4)cc3)c3ccccc3-c3ccccc32)cc1 (stereo not drawn) [Compound 7-4] | A | A | A (dissolved in an amount of 5% by weight or more)
O=C1c2ccccc2C(c2ccc(O)cc2)(c2ccc(OC3CCCCO3)cc2)c2ccccc21 (stereo not drawn) [Compound 7-5] | A | A | A (dissolved in an amount of 5% by weight or more)

Now from value to compound, other results behind:

(5) Alkali developability (Alkali developability) | (3) Inhibition of dissolution in developing solution [2] | Structure (SMILES) | (1) Solubility in safety solvent [1]
A | A | Oc1ccc(C2(c3ccc(OC4CCCCO4)cc3)Cc3cccc4cccc2c34)cc1 (stereo not drawn) [Compound 8-1] | A (dissolved in an amount of 5% by weight or more)
A | A | O=C1c2cccc3cccc(c23)C1(c1ccc(O)cc1)c1ccc(OC2CCCCO2)cc1 (stereo not drawn) [Compound 8-2] | A (dissolved in an amount of 5% by weight or more)
A | A | CCOC(C)Oc1ccc(C2(c3ccc(O)c(C4CCCCC4)c3)Cc3cccc4cccc2c34)cc1C1CCCCC1 (stereo not drawn) [Compound 8-3] | A (dissolved in an amount of 5% by weight or more)
A | A | CC(C)(C)OC(=O)Oc1ccc(C2(c3ccc(OC(=O)OC(C)(C)C)cc3)C(=O)c3cccc4cccc2c34)cc1 [Compound 8-4] | A (dissolved in an amount of 5% by weight or more)
A | A | CCOC(C)Oc1ccc(C2(c3ccc(O)c(-c4ccccc4)c3)Cc3cccc4cccc2c34)cc1-c1ccccc1 (stereo not drawn) [Compound 8-5] | A (dissolved in an amount of 5% by weight or more)
A | A | CC1(c2ccc3ccccc3c2)c2ccc(O)cc2Oc2cc(OC3CCCCC3)ccc21 (stereo not drawn) [Compound 9-1] | A (dissolved in an amount of 5% by weight or more)
A | A | CCCCOC(=O)Oc1ccc2c(c1)Oc1cc(OC(=O)OCCCC)ccc1C2c1ccc(-c2ccccc2)cc1 [Compound 10-1] | A (dissolved in an amount of 5% by weight or more)
A | A | Oc1ccc2c(c1)Oc1cc(OC3CCCCO3)ccc1C2c1ccc(-c2ccccc2)cc1 (stereo not drawn) [Compound 10-2] | A (dissolved in an amount of 5% by weight or more)
A | A | CC(C)(C)OC(=O)Oc1ccc2c(c1)Oc1cc(O)ccc1C21c2ccccc2-c2ccccc21 [Compound 11-1] | A (dissolved in an amount of 5% by weight or more)
A | A | CC(C)(C)OC(=O)Oc1ccc2c(c1)Oc1cc(OC(=O)OC(C)(C)C)ccc1C21c2ccccc2-c2ccccc21 [Compound 11-2] | B (dissolved in an amount of 0.1% by weight or more but less than 5% by weight)
A | A | CCOC(C)Oc1ccc2c(c1)Oc1cc(O)ccc1C21c2ccccc2-c2ccccc21 (stereo not drawn) [Compound 11-3] | A (dissolved in an amount of 5% by weight or more)
A | A | CCOC(C)Oc1ccc2c(c1)Oc1cc(O)ccc1C21Cc2cccc3cccc1c23 (stereo not drawn) [Compound 12-1] | A (dissolved in an amount of 5% by weight or more)
A |  | CC(C)(C)OC(=O)Oc1ccc(C(C)(C)c2ccc(OC(=O)OC(C)(C)C)cc2)cc1 [Compound 14-1, reference compound] | C (not dissolved in an amount of 0.1% by weight or more)
A |  | CC(C)(C)OC(=O)Oc1ccc(C2(c3ccc(OC(=O)OC(C)(C)C)cc3)CCCCC2)cc1 [Compound 14-2, reference compound] | C (not dissolved in an amount of 0.1% by weight or more)
A | A | CC(C)(C)OC(=O)Oc1ccc(C(c2ccc(OC(=O)OC(C)(C)C)cc2)c2ccc(OC(=O)OC(C)(C)C)cc2)cc1 [Compound 14-3, reference compound] | A (dissolved in an amount of 5% by weight or more)
A | A | CC(C)(C)OC(=O)Oc1ccc(-c2cc(-c3ccc(OC(=O)OC(C)(C)C)cc3)cc(-c3ccc(OC(=O)OC(C)(C)C)cc3)c2)cc1 [Compound 14-4, reference compound] | A (dissolved in an amount of 5% by weight or more)
